Results taken from ChEMBL document CHEMBL5223103, “FLT3 inhibitors for acute myeloid leukemia: successes, defeats, and emerging paradigms” (RSC Med Chem, 2022).
pIC50: −log10 of the molar value. One block for each compound: values may come before it.

Assays:
BaF3 [1] = experiment: Growth inhibition of mouse BAF3 cells harboring FLT3 ITD mutant assessed as reduction in cell inhibition measured after 72 hrs by MTT assay; format: functional
MV4-11 [2] = experiment: Growth inhibition of human MV4-11 cells assessed as reduction in cell growth by cell viability assay; format: functional
MOLM-13 [3] = experiment: Growth inhibition of human MOLM-13 cells assessed as reduction in cell growth by cell viability assay; format: functional
MOLM-14 = experiment: Growth inhibition of human MOLM-14 cells assessed as reduction in cell growth by cell viability assay; format: functional
Kasumi 1 = experiment: Growth inhibition of human Kasumi 1 cells assessed as reduction in cell growth by cell viability assay; format: functional
EOL1 = experiment: Growth inhibition of human EOL1 cells assessed as reduction in cell growth by cell viability assay; format: functional
THP-1 = experiment: Growth inhibition of human THP-1 cells assessed as reduction in cell growth by cell viability assay; format: functional
K562 = experiment: Growth inhibition of human K562 cells assessed as reduction in cell growth by cell viability assay; format: functional
[4] = Growth inhibition of mouse 32D cells harboring FLT3-ITD mutant assessed as growth inhibition by WST assay; format: functional
[5] = Growth inhibition of mouse 32D cells harboring FLT3-ITD-D835Y mutant assessed as growth inhibition WST assay; format: functional
[6] = Growth inhibition of mouse 32D cells harboring FLT3-ITD-Y842C mutant assessed as growth inhibition WST assay; format: functional
[7] = Growth inhibition of mouse 32D cells harboring FLT3-ITD-Y842H mutant assessed as growth inhibition WST assay; format: functional
[8] = Growth inhibition of mouse 32D cells harboring FLT3-ITD-F691L mutant assessed as growth inhibition WST assay; format: functional
[9] = Growth inhibition of mouse 32D cells harboring FLT3-D835Y mutant assessed as growth inhibition WST assay; format: functional
BaF3 [10] = experiment: Growth inhibition of mouse BaF3 cells transfected with FLT3-ITD assessed as inhibition of cell growth measured after 48 hrs by MTT assay; format: functional
BaF3 [11] = experiment: Growth inhibition of mouse BaF3 cells transfected with FLT3-D835Y assessed as inhibition of cell growth measured after 48 hrs by MTT assay; format: functional
[12] = target: Interleukin-1 receptor-associated kinase 1 (Homo sapiens, UniProt P51617); experiment: Inhibition of IRAK-1 (unknown origin)
Interleukin-1 receptor-associated kinase 1, sequence (P51617 whole entry): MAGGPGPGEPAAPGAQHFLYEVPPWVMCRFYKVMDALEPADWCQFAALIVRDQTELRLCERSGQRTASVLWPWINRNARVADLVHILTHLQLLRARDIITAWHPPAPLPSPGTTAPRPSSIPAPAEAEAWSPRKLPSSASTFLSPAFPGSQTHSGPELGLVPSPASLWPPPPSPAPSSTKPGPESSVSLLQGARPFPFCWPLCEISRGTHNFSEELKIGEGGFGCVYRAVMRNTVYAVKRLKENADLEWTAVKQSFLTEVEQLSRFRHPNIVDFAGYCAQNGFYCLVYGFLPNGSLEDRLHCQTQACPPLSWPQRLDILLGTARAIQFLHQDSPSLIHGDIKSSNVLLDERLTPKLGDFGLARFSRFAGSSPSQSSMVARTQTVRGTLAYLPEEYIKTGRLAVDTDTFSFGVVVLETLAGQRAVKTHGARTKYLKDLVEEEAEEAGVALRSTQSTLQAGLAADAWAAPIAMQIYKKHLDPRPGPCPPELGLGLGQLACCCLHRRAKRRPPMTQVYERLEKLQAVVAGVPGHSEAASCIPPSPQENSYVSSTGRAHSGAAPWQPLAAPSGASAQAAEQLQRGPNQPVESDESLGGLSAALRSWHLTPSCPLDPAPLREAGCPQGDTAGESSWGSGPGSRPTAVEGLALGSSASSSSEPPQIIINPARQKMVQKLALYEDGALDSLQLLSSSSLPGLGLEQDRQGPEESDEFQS

[13] = target: Macrophage colony-stimulating factor 1 receptor (Homo sapiens, UniProt P07333); experiment: Inhibition of FMS (unknown origin)
Macrophage colony-stimulating factor 1 receptor, sequence (P07333 whole entry): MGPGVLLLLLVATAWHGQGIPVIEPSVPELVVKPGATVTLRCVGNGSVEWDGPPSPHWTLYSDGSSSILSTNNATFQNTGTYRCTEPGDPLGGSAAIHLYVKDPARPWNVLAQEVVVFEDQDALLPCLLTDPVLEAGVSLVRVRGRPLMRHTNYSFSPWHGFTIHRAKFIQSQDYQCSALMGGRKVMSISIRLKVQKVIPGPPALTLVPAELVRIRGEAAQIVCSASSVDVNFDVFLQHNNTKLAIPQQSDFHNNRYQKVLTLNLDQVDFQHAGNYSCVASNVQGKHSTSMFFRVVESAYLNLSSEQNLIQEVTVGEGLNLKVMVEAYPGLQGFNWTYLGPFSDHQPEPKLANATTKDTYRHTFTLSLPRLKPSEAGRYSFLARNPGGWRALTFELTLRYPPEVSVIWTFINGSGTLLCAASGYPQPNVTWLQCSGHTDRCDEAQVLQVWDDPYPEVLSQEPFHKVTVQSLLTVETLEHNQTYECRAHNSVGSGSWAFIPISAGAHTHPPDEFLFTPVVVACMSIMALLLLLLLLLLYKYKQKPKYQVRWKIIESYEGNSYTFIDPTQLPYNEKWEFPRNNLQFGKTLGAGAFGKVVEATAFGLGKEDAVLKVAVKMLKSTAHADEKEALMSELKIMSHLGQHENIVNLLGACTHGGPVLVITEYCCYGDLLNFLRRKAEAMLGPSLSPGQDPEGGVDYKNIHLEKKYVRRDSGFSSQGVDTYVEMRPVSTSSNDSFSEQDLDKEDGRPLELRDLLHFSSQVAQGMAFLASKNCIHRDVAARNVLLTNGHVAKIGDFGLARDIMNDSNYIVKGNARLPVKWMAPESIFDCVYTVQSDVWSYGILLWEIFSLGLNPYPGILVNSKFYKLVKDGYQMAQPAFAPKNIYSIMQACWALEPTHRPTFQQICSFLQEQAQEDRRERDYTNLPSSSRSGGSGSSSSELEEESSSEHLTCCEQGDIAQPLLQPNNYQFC

BaF3 [14] = experiment: Growth inhibition of mouse BaF3 cells transfected in FLT3-ITD mutant measured after 72 hrs by CCK8 assay; format: functional
BaF3 [15] = experiment: Growth inhibition of mouse BaF3 cells transfected in FLT3-TDK mutant measured after 72 hrs by CCK8 assay; format: functional
MV4-11 [16] = experiment: Growth inhibition of human MV4-11 cells by WST-8 assay; format: functional
MOLM-13 [17] = experiment: Growth inhibition of human MOLM-13 cells by WST-8 assay; format: functional
MOLM-13 [18] = experiment: Growth inhibition of human MOLM-13 cells harboring FLT3 resistant inhibitor assessed as growth inhibition; format: functional

GI50 (BaF3 [1]): 5 nM
SMILES: C[C@]12O[C@H](C[C@]1(O)CO)n1c3ccccc3c3c4c(c5c6ccccc6n2c5c31)CNC4=O [LESTAURTINIB]

GI50 (MV4-11 [2]): 0.83 nM
GI50 (MOLM-13 [3]): 1.1 nM
GI50 (MOLM-14): 1.5 nM
GI50 (THP-1): > 1000 nM
GI50 (K562): > 1000 nM
SMILES: CCCNc1nc(Nc2ccc(C#N)cc2)ncc1C#CCCCNC(=O)[C@H](C)N(C)C(=O)/C=C/CN(C)C [FF-10101]
GI50 (Kasumi 1): 26 nM
GI50 (EOL1): 72 nM
GI50 [4]: 1.9 nM
GI50 [5]: 0.81 nM
GI50 [6]: 3.5 nM
GI50 [7]: 5.3 nM
GI50 [8]: 10 nM
GI50 [9]: 1.1 nM

GI50 (BaF3 [10]): 1.8 nM
GI50 (BaF3 [11]): 1.6 nM
SMILES: CCc1nc(C(N)=O)c(Nc2ccc(N3CCC(N4CCN(C)CC4)CC3)c(OC)c2)nc1NC1CCOCC1 [GILTERITINIB]

pIC50 [12]: 7.87
pIC50 [13]: 7.40
GI50 (BaF3 [14]): 133 nM
GI50 (BaF3 [15]): < 434 nM
GI50 (MV4-11 [16]): 33 nM
GI50 (MOLM-13 [17]): 73 nM
GI50 (MOLM-13 [18]): 173 nM
SMILES: C1=N/C2=N/c3ccc(OCCN4CCCC4)c(c3)COC/C=C/COCc3cccc(c3)C(=C1)N2 [PACRITINIB]
